Consider 4 compounds from publication doi:10.1101/657387v2 (biorxiv, 2019).

Assay in all cases: whole-cell patch clamp, HEK-293T
Assay type in all cases: cell-based
Background: The patch-clamp technique gives a direct electrical read-out from membranes.

For experiment [1], the target named is T1, TASK-3 (hTASK-3) (Homo sapiens, UniProt Q9NPC2). To be noted: read-out: % inhibition at 0.5 μM.
Experiment [2] addresses T2, TASK-3/TASK-1 (hTASK-3/hTASK-1) (Homo sapiens, UniProt O14649+Q9NPC2). To be noted: read-out: % inhibition at 0.5 μM.
Experiment [3] concerns the target T1, TASK-3 (hTASK-3). The conditions noted are these: dose-response.
Experiment [4] has as its target T1, TASK-3 (hTASK-3).
Experiment [5] deals with T2, TASK-3/TASK-1 (hTASK-3/hTASK-1).

T1 sequence (Q9NPC2 whole entry): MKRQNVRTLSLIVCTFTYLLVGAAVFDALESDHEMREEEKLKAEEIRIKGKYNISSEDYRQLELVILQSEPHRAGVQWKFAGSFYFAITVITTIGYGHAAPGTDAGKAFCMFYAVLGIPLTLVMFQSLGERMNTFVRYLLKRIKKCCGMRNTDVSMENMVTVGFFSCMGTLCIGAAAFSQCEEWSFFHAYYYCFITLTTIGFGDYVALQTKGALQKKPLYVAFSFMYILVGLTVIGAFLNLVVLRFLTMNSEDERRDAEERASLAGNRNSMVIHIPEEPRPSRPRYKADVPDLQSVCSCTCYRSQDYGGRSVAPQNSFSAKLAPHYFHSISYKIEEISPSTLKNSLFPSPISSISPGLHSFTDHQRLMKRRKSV
T2 sequence (Q9NPC2 whole entry): as above
T2 sequence (O14649 whole entry): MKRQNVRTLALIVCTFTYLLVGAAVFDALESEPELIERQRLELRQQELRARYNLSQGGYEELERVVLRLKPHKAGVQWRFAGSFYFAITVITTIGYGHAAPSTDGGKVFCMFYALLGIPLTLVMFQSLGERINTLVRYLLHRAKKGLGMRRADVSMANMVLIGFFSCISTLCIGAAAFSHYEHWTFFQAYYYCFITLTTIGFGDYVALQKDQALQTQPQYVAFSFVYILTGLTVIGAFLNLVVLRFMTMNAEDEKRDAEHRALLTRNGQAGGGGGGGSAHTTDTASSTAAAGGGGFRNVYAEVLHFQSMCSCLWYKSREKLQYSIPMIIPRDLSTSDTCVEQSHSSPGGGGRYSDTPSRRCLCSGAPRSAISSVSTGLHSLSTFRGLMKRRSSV

As a reminder, the inhibition is the relative decrease from the control value, in per cent. With `CCCC(=O)C1CCN(c2ncnc3c2CN(C(=O)c2ccc(-c4ccccc4)cc2)CC3)CC1` [PK-THPP], the inhibition at 0.5 µM in experiment [1] came to 86 ± 3%; in experiment [2], 90 ± 2%. Consider `Cc1ccc(SCc2cc(O)nc(N=C(N)Nc3ccc(C(C)(C)C)cc3)n2)cc1` [CHET3-2], for which the “whole-cell patch clamp, HEK-293T” value in experiment [3] is “while CHET3-2 was inactive (Fig. 4B)”. Broadly, the EC50 is the midpoint of the concentration-response curve. As to `Cc1ccc(SCc2cc(O)nc(N=C(N)Nc3ccc4c(c3)OCCO4)n2)cc1` [CHET3], the EC50 in experiment [4] worked out at 1400 ± 200 nM; in experiment [5] it was 2500 ± 200 nM.

As to `Cc1ccc(SCc2cc(O)nc(N=C(N)Nc3cccc4ccccc34)n2)cc1` [CHET3-1], the midpoint of the response in experiment [4], the EC50, lay at 500 ± 100 nM.
